Data published in patent publication US10894817B2, “Fatty acid modified urocortin-2 analogs for the treatment of diabetes and chronic kidney disease” (priority 2016, dated 2021).
Starred links: 1 amine or outer side, 2 acyl side, 3 side chain; linkers in the order of their positions; H or OH if unused. Non-standard residues stand in square brackets, D forms with d. Residues, ends and D or L forms follow the SMILES beside them. Groups on a side chain read outwards from the residue. *: point of attachment. C20 diacid = O=C(O)CCCCCCCCCCCCCCCCCCC(=O)*; C18 diacid = O=C(O)CCCCCCCCCCCCCCCCC(=O)*; γGlu = O=C(O)[C@H](CCC(=O)[*:2])N[*:1]; NMeI = CC[C@H](C)[C@H](NC)C(=O)O; AEEA = NCCOCCOCC(=O)O

What was measured:
[1] = tested on: UniNx db/db AAV renin mice; experiment: Uninephrectomized db/db AAV renin model of diabetic nephropathy; format: in vivo
Procedure: The uninephrectomized db/db adeno-associated viral (AAV) renin model represents a progressive model of diabetic kidney disease with hypertension driven by an AAV renin transgene (Am J Physiol Regul Integr Comp Physiol. 309(5):R467-74, (2015)).
The uninephrectomy (UniNx) surgery on female db/db mice on a C57BLKS/J background (obtained from Harlan Laboratories) is performed by Harlan Laboratories at 4 weeks of age with removal of the right kidney to accelerate the diabetic kidney disease. Animals are received at 5 weeks of age and housed in micro-isolator cages at 3 mice per cage and are on a 12 hour light/dark cycle. All db/db mice are fed ad libitum with Purina special diet 5008 and allowed free access to autoclaved water.
Mice are acclimated for 7 weeks prior to administration of AAV Renin (5×10^9 GC) intravenously by the retro-orbital sinus to induce persistent hypertension. Randomization by urine albumin to creatinine ratio (ACR), blood glucose and body weight is done at 15 weeks of age (a point at which renal disease and pathology are established in this model based on observations) into 2 groups of 12 saline control mice and 33 mice to receive Lisinopril treatment.
Dosing with Lisinopril (30 mg/L) begins at 16 weeks of age. After 2 weeks of Lisinopril treatment, the 33 mice are randomized by urine ACR, blood glucose and body weight into 4 groups (one group of 9 mice and 3 groups of 8 mice).
In the 4 groups of UniNx db/db AAV renin mice receiving Lisinopril treatment, either 0.9% physiological saline for injection (“saline control” N=9) or different dose levels of Example 4 (7.2, 24 or 72 nmol/kg, N=8 per dose level) are dosed at 0.2 mL s.c. per injection beginning at 18 weeks of age and continued 3 times weekly for 12 weeks. Albumin and creatinine are measured in urine with a Roche Hitachi Modular Analytics P analyzer with Roche reagents for detection of albumin and creatinine.
For all the groups, the parameters measured are body weight, kidney weight, heart weight, urine albumin to creatinine ratio, serum creatinine and renal pathology scores for mesangial matrix expansion, glomerular fibrosis, tubular regeneration, interstitial inflammation and interstitial fibrosis.
At 15 and 27 weeks of age, blood (30 to 50 uL) from all the UniNx db/db AAV Renin mice is obtained from the tail vein and dropped onto a Precision PCx blood glucose sensor electrode strip (Abbott Laboratories) for blood glucose determination with a MediSense Precision PCx glucometer (Abbott Laboratories). Blood glucose data is used to block the UniNx db/db mice into equivalent groups. Body weight is determined at baseline and at termination with a Metler Toledo Balance. The heart and kidney are removed at necropsy and weighed on a Metler Toledo Balance. Blood (500 ul) is collected from the retro-orbital sinus at termination under isoflurane anesthesia. The clotted blood is centrifuged to obtain serum. Serum is analyzed for creatinine on a Roche Hitachi Modular Analytics P analyzer with reagents from Roche.
Urine is collected by a spot collection method to collect urine over a 2-4 hr time period. An individual mouse is placed on top of a 96 well polypropylene microplate and then covered by a Plexiglas chamber with holes for breathing but no access to food or water. At the end of the time period, the urine is removed from the plate with a micropipette and placed on ice, centrifuged and subjected to albumin and creatinine analysis. Urine albumin, creatinine and glucose are determined on a Roche Hitachi Modular Analytics P analyzer. Urine creatinine is determined with the Creatinine Plus reagent by Roche. For urine albumin, the Roche Microalbumin assay is modified to adapt the calibration curve for measuring urine albumin in mice. Albuminuria was defined as albumin to creatinine ratio (ACR).
Kidneys are removed at study termination, fixed in formalin and processed for paraffin sectioning according to standard methodology. […]

human CRHR1 = biological target: T1, human CRHR1 (Homo sapiens, UniProt P34998); experiment: human CRHR1 cell-based cAMP assay (Y79 cells); settings: Y79 cells with endogenous human CRHR1, mean ± SEM of runs, read-out: hCRHR1 Average EC50
T1 construct: which expresses endogenous human CRHR1; host or cells: Y79 human retinoblastoma cells
T1 sequence (P34998 24-415): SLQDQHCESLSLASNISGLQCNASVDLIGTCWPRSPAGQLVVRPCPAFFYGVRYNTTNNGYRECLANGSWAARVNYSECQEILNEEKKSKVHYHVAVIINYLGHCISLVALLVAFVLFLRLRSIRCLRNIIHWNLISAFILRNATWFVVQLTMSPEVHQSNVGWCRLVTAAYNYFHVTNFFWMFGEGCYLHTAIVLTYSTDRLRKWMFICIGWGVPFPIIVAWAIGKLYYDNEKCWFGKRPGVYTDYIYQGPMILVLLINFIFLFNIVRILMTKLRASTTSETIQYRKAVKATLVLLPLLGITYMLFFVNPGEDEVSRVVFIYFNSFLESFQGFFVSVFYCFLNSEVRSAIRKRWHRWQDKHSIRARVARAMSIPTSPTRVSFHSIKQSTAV
Procedure: CRHR agonistic activity is measured in a cell-based cAMP assay. Serial dilutions of the test peptides are made in assay buffer containing Hank's Balanced Salt Solution (HBSS, without phenol red) supplemented with 20 mM HEPES and 0.05% lactalbumin enzymatic hydrolysate (LAH) (“assay buffer”). The highest concentration that is used starts from 1 μM in the human CRHR2b, whereas 100 μM starting concentration is used in the human CRHR1 assay. A one to three dilution of the test peptides is used in both assays.
The human Retinoblastoma cell line Y79 (ATCC #HTB-18), which expresses endogenous human CRHR1, is used in the human CRHR1 assay. The cells are grown in RPMI 1640 (Hyclone, #SH30255) containing 20% fetal bovine serum and 10 mM HEPES, in suspension culture. Cells are centrifuged to remove the culture media and washed once in HBSS supplemented with 20 mM HEPES. The cells are resuspended in the assay buffer and 20,000 cells are used per treatment in the human CRHR1 assay.
The cells are dispensed into Costar 96-well black polystyrene half area EIA/RIA plates (Corning Incorporated, Corning, N.Y.) followed by the addition of the diluted peptides, each at a volume of 20 μL. The agonist induced cAMP levels are detected using a HTRF cAMP Dynamic 2 kit (CisBio, Bedford, Mass.). After incubation at 37° C. for 30 min, the assay is stopped by cell lysis via the addition of 20 μL of d2-labeled cAMP and followed by 20 μL of cryptate-labeled anti-cAMP antibody, as described by the manufacturer. Cellular cAMP (as a result of agonist stimulation) competes with the d2-labeled cAMP for binding to the antibody. HTRF detection is performed on an Envision plate reader (Perkin Elmer Life and Analytical Sciences, Waltham, Mass.) by measuring ratiometric emission at 620 and 665 nm after excitation at 320 nm.
The data are converted to picomoles of cAMP using a standard curve obtained from the same assay performed with varying concentrations of unlabeled cAMP. Percent of the maximum activation of the cells is calculated using converted picomole cAMP data by comparing to the amount of cAMP produced by 1 μM human UCN2 for the human CRHR2b or 1 μM human UCN1 for the human CRHR1 assay. The data are analyzed using a Curve Fitting Tool to calculate ED50. Numeric values shown below in Table 1 represent the mean of multiple runs (number of runs shown in parentheses) following the mean value±SEM.

SMILES	deaths over the course of the study ([1]; Lisinopril plus 7.2 nmol/kg Example 4 group (N=8))	deaths over the course of the study ([1]; Lisinopril plus 24 nmol/kg Example 4 group (N=8))	deaths over the course of the study ([1]; Lisinopril plus 72 nmol/kg Example 4 group (N=8))	EC50 (human CRHR1)
CC[C@H](C)[C@H](NC)C(=O)N[C@H](C(=O)N[C@@H](CC(C)C)C(=O)N[C@@H](CO)C(=O)N[C@@H](CC(C)C)C(=O)N[C@@H](CC(=O)O)C(=O)N[C@H](C(=O)N1CCC[C@H]1C(=O)N[C@H](C(=O)NCC(=O)N[C@@H](CC(C)C)C(=O)N[C@@H](CC(C)C)C(=O)N[C@@H](CCC(N)=O)C(=O)N[C@H](C(=O)N[C@@H](CC(C)C)C(=O)N[C@@H](CC(C)C)C(=O)N[C@@H](CCC(=O)O)C(=O)N[C@@H](CCC(N)=O)C(=O)N[C@@H](CCC(=O)O)C(=O)N[C@@H](CCCCN)C(=O)N[C@@H](CCC(N)=O)C(=O)N[C@@H](CCC(=O)O)C(=O)N[C@@H](CCCCN)C(=O)N[C@@H](CCC(=O)O)C(=O)N[C@@H](CCCCN)C(=O)N[C@@H](CCC(N)=O)C(=O)N[C@@H](CCC(N)=O)C(=O)N[C@@H](C)C(=O)N[C@@H](CCCCNC(=O)COCCOCCNC(=O)COCCOCCNC(=O)CC[C@H](NC(=O)CC[C@H](NC(=O)CCCCCCCCCCCCCCCCCCC(=O)O)C(=O)O)C(=O)O)C(=O)N[C@H](C(=O)N[C@@H](CC(N)=O)C(=O)N[C@@H](C)C(=O)N[C@@H](CCC(N)=O)C(=O)N[C@H](C(=O)N[C@@H](CC(C)C)C(=O)N[C@@H](C)C(=O)N[C@@H](CCC(N)=O)C(=O)N[C@H](C(N)=O)C(C)C)[C@@H](C)CC)[C@@H](C)O)[C@@H](C)CC)[C@@H](C)CC)C(C)C)C(C)C [Example 4] (H-[NMeI]VLSLDVPIGLLQILLEQEKQEKEKQQAK([AEEA-AEEA-γGlu-γGlu-C20 diacid])TNAQILAQV-NH2)	1	3	3	> 100 µM
CC[C@H](C)[C@H](NC)C(=O)N[C@H](C(=O)N[C@@H](CC(C)C)C(=O)N[C@@H](CO)C(=O)N[C@@H](CC(C)C)C(=O)N[C@@H](CC(=O)O)C(=O)N[C@H](C(=O)N1CCC[C@H]1C(=O)N[C@H](C(=O)NCC(=O)N[C@@H](CC(C)C)C(=O)N[C@@H](CC(C)C)C(=O)N[C@@H](CCC(N)=O)C(=O)N[C@H](C(=O)N[C@@H](CC(C)C)C(=O)N[C@@H](CC(C)C)C(=O)N[C@@H](CCC(=O)O)C(=O)N[C@@H](CCC(N)=O)C(=O)N[C@@H](CCC(=O)O)C(=O)N[C@@H](CCCCN)C(=O)N[C@@H](CCC(N)=O)C(=O)N[C@@H](CCC(=O)O)C(=O)N[C@@H](CCCCN)C(=O)N[C@@H](CCC(=O)O)C(=O)N[C@@H](CCCCN)C(=O)N[C@@H](CCC(N)=O)C(=O)N[C@@H](CCC(N)=O)C(=O)N[C@@H](C)C(=O)N[C@@H](CCCCNC(=O)COCCOCCNC(=O)COCCOCCNC(=O)CC[C@H](NC(=O)CC[C@H](NC(=O)CCCCCCCCCCCCCCCCC(=O)O)C(=O)O)C(=O)O)C(=O)N[C@H](C(=O)N[C@@H](CC(N)=O)C(=O)N[C@@H](C)C(=O)N[C@@H](CCC(N)=O)C(=O)N[C@H](C(=O)N[C@@H](CC(C)C)C(=O)N[C@@H](C)C(=O)N[C@@H](CCC(N)=O)C(=O)N[C@H](C(N)=O)C(C)C)[C@@H](C)CC)[C@@H](C)O)[C@@H](C)CC)[C@@H](C)CC)C(C)C)C(C)C [Example 3] (H-[NMeI]VLSLDVPIGLLQILLEQEKQEKEKQQAK([AEEA-AEEA-γGlu-γGlu-C18 diacid])TNAQILAQV-NH2)				> 100 µM
CC[C@H](C)[C@H](NC(C)=O)C(=O)N[C@H](C(=O)N[C@@H](CC(C)C)C(=O)N[C@@H](CO)C(=O)N[C@@H](CC(C)C)C(=O)N[C@@H](CC(=O)O)C(=O)N[C@H](C(=O)N1CCC[C@H]1C(=O)N[C@H](C(=O)NCC(=O)N[C@@H](CC(C)C)C(=O)N[C@@H](CC(C)C)C(=O)N[C@@H](CCC(N)=O)C(=O)N[C@H](C(=O)N[C@@H](CC(C)C)C(=O)N[C@@H](CC(C)C)C(=O)N[C@@H](CCC(=O)O)C(=O)N[C@@H](CCC(N)=O)C(=O)N[C@@H](CCC(=O)O)C(=O)N[C@@H](CCCCN)C(=O)N[C@@H](CCC(N)=O)C(=O)N[C@@H](CCC(=O)O)C(=O)N[C@@H](CCCCN)C(=O)N[C@@H](CCC(=O)O)C(=O)N[C@@H](CCCCN)C(=O)N[C@@H](CCC(N)=O)C(=O)N[C@@H](CCC(N)=O)C(=O)N[C@@H](C)C(=O)N[C@@H](CCCCNC(=O)COCCOCCNC(=O)COCCOCCNC(=O)CC[C@H](NC(=O)CC[C@H](NC(=O)CCCCCCCCCCCCCCCCCCC(=O)O)C(=O)O)C(=O)O)C(=O)N[C@H](C(=O)N[C@@H](CC(N)=O)C(=O)N[C@@H](C)C(=O)N[C@@H](CCC(N)=O)C(=O)N[C@H](C(=O)N[C@@H](CC(C)C)C(=O)N[C@@H](C)C(=O)N[C@@H](CCC(N)=O)C(=O)N[C@H](C(N)=O)C(C)C)[C@@H](C)CC)[C@@H](C)O)[C@@H](C)CC)[C@@H](C)CC)C(C)C)C(C)C [Example 2] (Ac-IVLSLDVPIGLLQILLEQEKQEKEKQQAK([AEEA-AEEA-γGlu-γGlu-C20 diacid])TNAQILAQV-NH2)				> 10 µM
